Measurements taken from patent US20100055198A1, “HARD SURFACE CLEANING AND DISINFECTING COMPOSITION” (Arkema Inc., priority 2007, published 2010).

Key:
S. choleraesuis = assay: AOAC Use-Dilution disinfection test, S. choleraesuis; assay type: cell-based, Salmonella choleraesuis
Description: (§1) The testing was performed in accordance with the protocols outlined in “Use-dilution Method”, Protocols 955.14, 955.15 and 964.02 described in Chapter 6 of “Official Methods of Analysis”, 16th Edition, of the Association of Official Analytical Chemists; “Germicidal and Detergent Sanitizing Action of Disinfectants”, 960.09 described in Chapter 6 of “Official Methods of Analysis”, 15th Edition, of the Association of Official Analytical Chemists; or American Society for Testing and Materials (ASTM) E 1054-91 the contents of which are herein incorporated by reference. This test is also commonly referred to as the “AOAC Use-Dilution Test Method”. Testing was conducted starting with 10^5 to 10^6 CFU/ml bacteria concentration, 10 ml of the cleaning composition described in each example and test protocol outlined in the “AOAC Use-dilution Method”.

S. aureus = assay: AOAC Use-Dilution disinfection test, S. aureus; assay type: cell-based, Staphylococcus aureus
Description: as §1

P. aeruginosa = assay: AOAC Use-Dilution disinfection test, P. aeruginosa; assay type: cell-based, Pseudomonas aeruginosa
Description: as §1

[1] = system: gram-positive and gram-negative bacteria; assay: Disinfection properties overall (AOAC Use-Dilution); assay type: cell-based; details: low concentration (e.g. 3%), pH 7
Description: as §1

[2] = pH 4.4, time 0 min (starting count)
[3] = pH 7.7, time 0 min (starting count)

Row | Molecule | S. choleraesuis (CFU/ml) (S. choleraesuis; [2]) | S. choleraesuis (CFU/ml) (S. choleraesuis; [3]) | killing gram positive bacteria (Staphylococus aureus), in words (S. aureus; acidic pH) | killing gram positive bacteria (Staphylococus aureus), in words (S. aureus; neutral pH) | S. aureus (CFU/ml) (S. aureus; [2]) | S. aureus (CFU/ml) (S. aureus; pH 4.4, time 5 min, average from two replicates) | S. aureus (CFU/ml) (S. aureus; [3]) | S. aureus (CFU/ml) (S. aureus; pH 7.7, time 5 min) | P. aeruginosa (CFU/ml) (P. aeruginosa; [2]) | P. aeruginosa (CFU/ml) (P. aeruginosa; [3]) | disinfectant property, in words [1]
1 | hydrogen peroxide [3% H2O2] | 2.9 × 10^5 CFU/ml | 2.4 × 10^5 CFU/ml | not effective | not effective | 1.6 × 10^5 CFU/ml | 4.3 × 10^3 *^1 CFU/ml | 1.3 × 10^5 CFU/ml | 6.0 × 10^2 CFU/ml | 1.7 × 10^5 CFU/ml | 1.5 × 10^5 CFU/ml | 
2 | CC(C)O [isopropanol, Isopropanol] |  |  |  |  |  |  |  |  |  |  | slight disinfectant property
